Measured values from PMC7399337, “Biological Properties and Absolute Configuration of Flavanones From Calceolaria thyrsiflora Graham” (Frontiers in Pharmacology, 2020).
≈ marks a conversion by molar mass, not a printed value. One block for each molecule: values may come before it.

How the values were obtained:
[1] = tested on: B. cinerea; assay: In vitro fungicidal activity, radial mycelial growth test on PDA; format: cell-based; conditions: Botrytis cinerea, 72 h, read-out: Percentage of inhibition on in vitro mycelial growth of B. cinerea
Description: (§1) A strain of Botrytis cinerea isolated from a naturally infected grape (Vitis vinifera) was used in all experiments. Isolated Phytophtora cinnamomi was provided by the Agricultural and Livestock Service of Valparaíso. Both strains were maintained on a potato dextrose agar (PDA) medium (DIFCO, Detroit, MI) at 4°C. The inoculum of both pathogens was grown on PDA and incubates in dark at 23°C for 5 days in the case of B. cinerea and 8 days for P. cinnamomi.
(§2) The fungicidal activity of flavanones, extracts, the negative control (C-) composed of solvent (1% ethanol), and the positive control (C+, commercial fungicide Captan® and metalaxil® for B. cinerea and P. cinnamomi, respectively) were assessed using the radial growth test technique on PDA medium as described ([Taborga et al., 2015]). All test samples were dissolved in ethanol (1%) and water, to obtain final concentrations of 50, 150, and 250 mg/L in the PDA medium. A plug (4 mm) of PDA medium with five-day-old mycelium colonies of the pathogen was placed at the center of a Petri dish with PDA medium with or without studied test samples and were incubated at 23°C in dark for 72 h (B. cinerea) and 120 h (P. cinnamomi). After incubation, the diameters of colonies were measured and the inhibition percentage was calculated as the average of three replicas compared to C-.

[2] = molecular target: T1, 5-hLOX (Homo sapiens, UniProt P09917); assay: In vitro 5-hLOX enzyme assay (H2DCFDA fluorescence); format: biochemical; conditions: for Type of inhibition: 5-hLOX
T1 construct: purchased Cayman Chemicals Inc. (Ann Arbor, MI, USA)
T1 sequence (P09917 1-674): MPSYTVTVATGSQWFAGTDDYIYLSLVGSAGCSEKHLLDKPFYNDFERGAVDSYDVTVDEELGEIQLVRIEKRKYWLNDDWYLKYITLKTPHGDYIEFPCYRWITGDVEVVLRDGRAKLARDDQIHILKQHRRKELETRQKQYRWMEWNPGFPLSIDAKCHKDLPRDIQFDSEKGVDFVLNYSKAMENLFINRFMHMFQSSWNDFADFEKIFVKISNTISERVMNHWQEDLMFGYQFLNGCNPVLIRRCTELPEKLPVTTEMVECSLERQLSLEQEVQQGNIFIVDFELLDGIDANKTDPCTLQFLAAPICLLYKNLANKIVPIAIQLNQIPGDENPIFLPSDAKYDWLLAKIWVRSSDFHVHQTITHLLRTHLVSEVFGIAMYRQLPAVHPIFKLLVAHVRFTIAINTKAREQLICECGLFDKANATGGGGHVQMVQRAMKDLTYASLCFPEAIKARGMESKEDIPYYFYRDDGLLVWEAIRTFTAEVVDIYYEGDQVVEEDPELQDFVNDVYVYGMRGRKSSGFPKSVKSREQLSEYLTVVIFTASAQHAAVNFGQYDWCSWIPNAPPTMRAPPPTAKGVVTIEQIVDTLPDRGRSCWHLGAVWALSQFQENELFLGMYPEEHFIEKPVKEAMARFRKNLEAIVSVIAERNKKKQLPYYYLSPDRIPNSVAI
Description: The commercially available enzyme 5-hLOX from Cayman Chemicals Inc. (Ann Arbor, MI, USA), was diluted (1:500) in the assay buffer. This contained 4-(2-hydroxyethyl)-1-piperazineethane sulfonic acid (HEPES) 50 mM, ethylenediamine tetraacetic acid (EDTA) 2 mM, adenosine triphosphate (ATP) 10 μM, and CaCl2 10 μM at pH 7.5) admixed with 10 μM of H2DCFDA. The reaction mixture was incubated for 15 min in the assay plate. Later, 280 μL of buffer and 10 μM of inhibitors were added per well and incubated for 30 min at 37°C. Finally, the reaction was started by adding a suitable concentration of arachidonic acid (0.5 μM) and the fluorescence was read in a multimode detector Synergy™ HT Multi-Mode Microplate Reader (Biotek, Bad Friedrichshall, Germany) […] after incubation at room temperature for 1 h. The IC50 values were obtained for analysis of oxidation of H2DCFDA dye to the highly fluorescent 2’,7’-dichloro-fluorescein (DCF) using the non-linear curve-fitting program. […] All data were collected in duplicate and the assays were performed on different days to ensure reproducibility.

[3] = molecular target: T1, 5-hLOX; assay: as above; format: biochemical; conditions: kinetic assays, inhibitor 0–1 μM, substrate 0.2–5 μM
[4] = tested on: S. aureus MRSA 622-4; assay: Antibacterial MIC, CLSI microdilution, human pathogens; format: cell-based; conditions: 18 h; for MIC: Staphylococcus aureus, read-out: Minimum inhibitory concentration (MIC)
Description: (§3) Briefly, stock solutions (5 mg/ml) of compounds in DMSO were diluted in Mueller-Hinton broth (MHB) to the different two-fold assay concentrations. […] The obtained solution was added to MHB and serially two-fold diluted in a 96-well microplate. A sample of 100 μL of inoculum 1.5 × 10^6 colony forming unit (CFU) ml^-1 in MHB was added and then incubated at 37°C for 18 h. The assay was repeated three times. Wells containing MHB, 100 μL of inoculum, and DMSO served as negative controls.

[5] = tested on: S. aureus NTCC8325-4; assay: as above; format: cell-based; conditions: for MIC: Staphylococcus aureus, NTCC83254, 18 h, read-out: Minimum inhibitory concentration (MIC)
Description: as §3

[6] = tested on: E. coli 33.1; assay: as above; format: cell-based; conditions: Escherichia coli; E. coli 33.1 (multi-resistant); 18 h; read-out: Minimum inhibitory concentration (MIC)
Description: as §3

[7] = tested on: S. aureus MRSA 97-7; assay: as above; format: cell-based; conditions: 18 h; for MIC: Staphylococcus aureus, read-out: Minimum inhibitory concentration (MIC)
Description: as §3

[8] = tested on: E. coli ATCC25922; assay: as above; format: cell-based; conditions: Escherichia coli, 18 h, read-out: Minimum inhibitory concentration (MIC)
Description: as §3

[9] = tested on: B16-F10 mouse metastatic melanoma cells; assay: In vitro cytotoxic activity, CyQuant cell viability, 72 h; format: cell-based; conditions: Mus musculus, B16-F10, 72 h, read-out: LC50 ± SD
Description: Cell viability was measured using a CyQuant® Direct Cell Proliferation Assay Kit (Life Technologies, Grand Island, NY, USA) following the manufacturer’s instruction. Briefly, 5,000 cells per well were seeded onto a flat-bottom 96-well plate in 200 μL final volume. Six hours after seeding, the culture medium was replaced by the medium containing the tested compounds at 0.01 to 100 µM concentrations in DMSO (0.1% final concentration) during 72 h. Untreated cells (medium containing only 0.1% DMSO) were used as controls. At the end of the incubation, 100 μL of culture medium was removed from each well and replaced by detection reagent solution provided by the kit (which is a 1:5 mixture of the reagent CyQUANT®, direct nucleic acid stain and the reagent labeled as CyQUANT® direct background suppressor I). […] At least four independent experiments were performed for each concentration.

[10] = tested on: MDA-MB-231 human breast adenocarcinoma cells; assay: as above; format: cell-based; conditions: Homo sapiens, MDA-MB-231, 72 h, read-out: LC50 ± SD
Description: (§4) The used cell lines include MDA-MB-231 human breast adenocarcinoma cells, B16-F10 mouse metastatic melanoma cells and MEF primary mouse embryonic fibroblast. Cells were maintained in a DMEM high glucose medium (Mediatech, Manassas, VA, USA) supplemented with 10% (MDA-MB-231 and B16-F10) or 15% (MEF) heat-inactivated fetal bovine serum (HyClone Laboratories, South Logan, USA), 100 IU ml^-1 penicillin and 100 μg ml^-1 streptomycin while maintained at 37°C in a 5% CO2 humidified atmosphere. Cell viability was measured using a CyQuant® Direct Cell Proliferation Assay Kit (Life Technologies, Grand Island, NY, USA) following the manufacturer’s instruction. Briefly, 5,000 cells per well were seeded onto a flat-bottom 96-well plate in 200 μL final volume. Six hours after seeding, the culture medium was replaced by the medium containing the tested compounds at 0.01 to 100 µM concentrations in DMSO (0.1% final concentration) during 72 h. Untreated cells (medium containing only 0.1% DMSO) were used as controls. At the end of the incubation, 100 μL of culture medium was removed from each well and replaced by detection reagent solution provided by the kit (which is a 1:5 mixture of the reagent CyQUANT®, direct nucleic acid stain and the reagent labeled as CyQUANT® direct background suppressor I). Cells were incubated for 1 h and fluorescence emission was measured at 535 nm with excitation at 480 nm in a microplate reader (Infinite 200 PRO, Tecan, Grödig, Austria). At least four independent experiments were performed for each concentration. The results from each experiment were transformed into percentage of controls and the LC50 values were graphically obtained from the dose-response curves. The LC50 value was obtained adjusting the dose-response curve to sigmoidal curves (variable slope) using the GraphPad Prisma 6.0 software ([GraphPad-Software, 2015]).

[11] = as above; format: cell-based; conditions: mouse
Description: as §4

[12] = tested on: P. cinnamomi; assay: In vitro fungicidal activity, radial mycelial growth test on PDA; format: cell-based, Phytophtora cinnamomi; conditions: 120 h
Description: as §1, §2

[13] = tested on: bacterial growth; set-up: method as in Bravo et al., 2005; conditions: high concentrations (1,000 µg/ml); ref Bravo et al., 2005; cited from earlier work
[14] = tested on: S. aureus ATCC; set-up: method as in Bravo et al., 2005; conditions: 250 µg/ml; ref Bravo et al., 2005; cited from earlier work

Compound: O=C1C2CC=CCC2C(=O)N1SC(Cl)(Cl)Cl (stereo not shown) [Captan]
- inhibition at 50 µg/mL ([1]; 50 mg/L): 94 ± 5.2%
- inhibition at 150 µg/mL ([1]; 150 mg/L): 100 ± 0.1%
- inhibition at 250 µg/mL ([1]; 250 mg/L): 100 ± 0.2%

- Type of inhibition [2]: competitive
- inhibition at 10 µM ([2]; Flavanones at 10 µM): 88 ± 0.678%
- IC50 ([2]; read-out: IC50 (5-hLOX)): 220 nM
- Ki [3]: 70 nM
- MIC [4]: > 100 µg/mL
- MIC [5]: > 100 µg/mL
- MIC [6]: > 100 µg/mL
- MIC [7]: > 100 µg/mL
- MIC [8]: > 100 µg/mL
Compound: O=C1CC(c2ccc(O)c(O)c2)Oc2cc(O)cc(O)c21 (stereo not shown) [Compound 3, 5,7,3’,4’-Tetrahydroxyflavanone]

Compound: CC(=O)O[C@H]1C(=O)[C@@]2(C)[C@H]([C@H](OC(=O)c3ccccc3)[C@]3(O)C[C@H](OC(=O)[C@H](O)[C@@H](NC(=O)c4ccccc4)c4ccccc4)C(C)=C1C3(C)C)[C@]1(OC(C)=O)CO[C@@H]1C[C@@H]2O [Taxol, reference compound]
- CC50 [9]: 480 ± 80 nM
- CC50 [10]: 210 ± 480 nM
- CC50 at 72 h [11]: 400 ± 70 nM

Compound: CC(Cc1ccc(O)c(O)c1)C(C)Cc1ccc(O)c(O)c1 (stereo not shown) [NDGA, nordihydroguaiaretic acid, reference compound]
- Type of inhibition [2]: competitive
- % of inhibition (5-hLOX) ([2]; Flavanones at 10 µM): 93 ± 5.870%

- Minimum inhibitory concentration (MIC) [4]: 5 µg/mL (≈ 3.45 µM)
- Minimum inhibitory concentration (MIC) ([5]; 18 h): 3,5 µg/ml
- Minimum inhibitory concentration (MIC) [7]: 25 µg/mL (≈ 17.3 µM)
Compound: CN[C@H](CC(C)C)C(=O)N[C@H]1C(=O)N[C@@H](CC(N)=O)C(=O)N[C@H]2C(=O)N[C@H]3C(=O)N[C@H](C(=O)N[C@H](C(=O)O)c4cc(O)cc(O)c4-c4cc3ccc4O)[C@H](O)c3ccc(c(Cl)c3)Oc3cc2cc(c3O[C@@H]2O[C@H](CO)[C@@H](O)[C@H](O)[C@H]2O[C@H]2C[C@](C)(N)[C@H](O)[C@H](C)O2)Oc2ccc(cc2Cl)[C@H]1O [Vancomicin, reference compound]

Compound: COCC(=O)N(c1c(C)cccc1C)C(C)C(=O)OC (stereo not shown) [Metalaxil, reference compound]
- Percentage of inhibition on in vitro mycelial growth of P. cinnamomi ([12]; 50 mg/L): 100 ± 0.2%
- Percentage of inhibition on in vitro mycelial growth of P. cinnamomi ([12]; 150 mg/L): 100 ± 0.1%
- Percentage of inhibition on in vitro mycelial growth of P. cinnamomi ([12]; 250 mg/L): 100 ± 0.1%

Compound: O=C1Nc2ccc(O)cc2OC1O (stereo not shown) [Compound 7-OH-HBOA, 2,7-dihydroxy-2H-1,4-benzoxazin-3(4H)-one]
- inhibitory activity of bacterial growth [13]: inhibitory activity

- inhibition at 10 µM ([2]; Flavanones at 10 µM): 11.7 ± 2.45%
- MIC [4]: > 100 µg/mL
- MIC [5]: > 100 µg/mL
- MIC [6]: > 100 µg/mL
- MIC [7]: > 100 µg/mL
- MIC [8]: > 100 µg/mL
Compound: COc1cc(C2CC(=O)c3c(O)cc(O)cc3O2)ccc1O (stereo not shown) [Compound 4, 3’-methoxy-4’,5,7-trihydroxyflavanone]

Compound: COc1cc([C@@H]2c3cc4c(cc3[C@@H](O[C@@H]3O[C@@H]5CO[C@@H](C)O[C@H]5[C@H](O)[C@H]3O)[C@H]3COC(=O)[C@H]23)OCO4)cc(OC)c1O [Etoposide, reference compound]
- CC50 [9]: 1740 ± 320 nM
- CC50 [10]: 1330 ± 280 nM
- CC50 at 72 h [11]: 1030 ± 170 nM

Compound: O=C(O)c1cc(O)c(O)c(O)c1 [gallic acid]
- inhibitory activity of bacterial growth [13]: inhibitory activity
- inhibition activity of S. aureus ATCC [14]: 67.2%

Compound: O=C1Nc2ccccc2OC1O (stereo not shown) [HBOA, 2-dydroxy-2H-1,4-benzoxazin-3(4H)-one]
- inhibitory activity of bacterial growth [13]: inhibitory activity

- MIC [6]: > 100 µg/mL
- MIC [8]: 60 µg/mL (≈ 172 µM)
Compound: CC1(C)S[C@@H]2[C@H](NC(=O)[C@H](N)c3ccccc3)C(=O)N2[C@H]1C(=O)O [Ampicillin, reference compound]

Compound: O=c1[nH]c2ccccc2o1 [BOA, 2-benzoxazolinone]
- inhibitory activity of bacterial growth [13]: inhibitory activity

Compound: O=C1C(O)Oc2ccccc2N1O (stereo not shown) [DIBOA, 2,4-dihydroxy-2H-1,4-benzoxazin-3(4H)-one]
- inhibitory activity of bacterial growth [13]: inhibitory activity
